Results reported in patent US11428689B2, “Methods and uses for remotely triggered protease activity measurements” (Massachusetts Institute of Technology, priority 2016, dated 2022).
Entries after “also recorded” stand apart in the source; their conditions may differ. Where no end group is shown, it is not given here. [ ]: non-standard residue; d: D form. FAM = fluorescein

What was measured:
[1] = system: LS174T cells; experiment: Secreted protease activity assay, conditioned media; format: cell-based, human; settings: conditioned media from LS174T cells
Procedure: LS174T and CCD-18Co (ATCC CRL-1459) cells were cultured in Eagle's Minimal Essential Medium (ATCC) supplemented with 10% FBS (Gibco) and 1% penicillin-streptomycin (CellGro). Cells were passaged when confluence reached 80%. To isolate secreted proteases, after cells were plated, cells were washed and replaced in serum-free media. Conditioned media was collected 24 h later and exposed to C1-NPs to measure fluorescence dequenching.

[2] = biological target: plasmin (Homo sapiens, UniProt P00747); experiment: Proteolysis of alternate DMNPE-veiled substrate; format: biochemical
Excerpt: To validate that the approach is generalizable to alternative substrates, the STREAMs principle was applied to a second peptide sequence. Additionally, the reporter for this additional sequence was designed to be orthogonal to the original sequence (containing a near IR dye as opposed to fluorescein). […] The ability to produce STREAMs with orthogonal reporters for multiple substrate targets, in some embodiments, enables multiplexing. Additionally, coupling this approach with alternate modes for multiplexing analyte detection, in some embodiments, enables simultaneous monitoring of several substrates.
Fluorescein-conjugated peptides (MMP sensitive, C1: FAM-sk-PLGLEEA-GC; SEQ ID NO: 3) were synthesized. D-amino acid controls were also synthesized, where the substrate sequence was all D-stereoisomers. Peptides for in vivo studies that contain a ligand-encoded reporter for urinary clearance and subsequent ELISA detection were synthesized (V1: Biotin-PEG(5 kDa)-(KFAM)-PLGLEEA-GC; SEQ ID NO: 4). The PEG 5 kDa reporter is efficiently cleared by the renal system into the urine and can be quantified by ELISA for the conjugated ligands. The alternate substrate to show STREAMs extensibility was synthesized at a different location (sequence: eGvndneeGffsarKsRLVGEGC; SEQ ID NO: 5). VT750 (PerkinElmer) was conjugated to the free lysine prior to coupling to DMNPE. […]

[3] = system: LS174T; experiment: Secreted protease activity assay with quenched substrates; format: cell-based, human; settings: for cleavage by cell-secreted proteases: fluorescently quenched versions, LS174T conditioned supernatant
Procedure: Next, whether the MAPS(S1-S3) could distinguish MMP profiles of different tumor types was probed. […] Cleavage of the substrates was tested by cell-secreted proteases by employing fluorescently quenched versions and exposing them to conditioned supernatant.
LS174T and HCT-8 cells were cultured in Eagle's Minimal Essential Medium (ATCC) supplemented with 10% FBS (Gibco) and 1% penicillin-streptomycin (CellGro). Cells were passaged when confluence reached 80%. To isolate secreted proteases, after cells were plated, cells were washed and replaced in serum-free media. Media was collected and MMP2 was measured in supernatant using a Quantikine MMP-2 kit following manufacturer protocols (R&D Systems). Secretion was normalized to number of cells and days in culture. A similar approach was used when collecting supernatants for measuring proteolysis of S1-3.

[4] = biological target: T1, MMP9 (Homo sapiens, UniProt P14780); experiment: In vitro recombinant protease assay with streptavidin depletion; format: biochemical; design: purchased Enzo Life Sciences; settings: ~100 nM MMP, one hour
Procedure: (§1) MMPs (˜100 nM working concentration, Enzo Life Sciences) were added to substrates in 384-well plates in activity buffer (50 mM Tris, 150 mM NaCl, 5 mM CaCl2, 1 μM ZnCl2) containing 1% BSA. After one hour, uncleaved peptide was extracted using Dynabeads Strepatividin C1 (Life Technologies) as per manufacturer protocols. An excess of Dynabeads was used.

[5] = healthy mice
Excerpt: (§2) The in vivo activation protocol was applied to specifically activate the three sets of MAPS to profile tumor protease activity between LS174T and HCT8 tumors.

[6] = system: LS174T flank tumor; settings: LS174T tumor-bearing mice
Excerpt: as §2

[7] = biological target: T2, MMP2 (Homo sapiens, UniProt P08253); experiment: In vitro recombinant protease assay with streptavidin depletion; format: biochemical; settings: ~100 nM MMP, one hour
T2 construct: purchased Enzo Life Sciences
T2 sequence (P08253 110-660): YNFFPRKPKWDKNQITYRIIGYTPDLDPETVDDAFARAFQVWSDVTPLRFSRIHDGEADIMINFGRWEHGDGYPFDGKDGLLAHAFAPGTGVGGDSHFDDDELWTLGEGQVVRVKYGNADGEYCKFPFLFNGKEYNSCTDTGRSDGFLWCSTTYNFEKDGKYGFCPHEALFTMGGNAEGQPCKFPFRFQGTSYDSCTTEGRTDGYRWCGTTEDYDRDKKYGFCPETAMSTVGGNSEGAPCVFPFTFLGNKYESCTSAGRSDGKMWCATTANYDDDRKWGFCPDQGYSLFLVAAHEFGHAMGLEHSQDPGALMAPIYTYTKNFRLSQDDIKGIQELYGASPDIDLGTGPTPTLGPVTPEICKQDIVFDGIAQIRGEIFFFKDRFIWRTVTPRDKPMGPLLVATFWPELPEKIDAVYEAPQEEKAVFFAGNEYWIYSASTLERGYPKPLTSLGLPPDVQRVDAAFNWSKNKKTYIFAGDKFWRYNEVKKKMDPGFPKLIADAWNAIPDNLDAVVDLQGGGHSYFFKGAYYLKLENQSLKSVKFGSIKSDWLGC
Procedure: as §1

[8] = biological target: T1, MMP9; experiment: Agarose gel assay; format: biochemical; settings: light exposure 1 min, 200 mW/cm^2
Procedure: Agarose (type I-A, Sigma) was dissolved in MMP9 specific buffer (1% w/v) and heated. As the gel mixture was cooling, gel solution was transferred into a 96-well plate and mixed with STREAMs and recombinant MMP9. After gelation, the gels were activated (as above), and fluorescence dequenching through cleavage was monitored using time-lapse fluorimetry.

[9] = biological target: T3, recombinant thrombin (Homo sapiens, UniProt P00734); experiment: In vitro recombinant protease assay (fluorescence release); format: biochemical; settings: veiled vs unmodified
T3 construct: purchased Haematologic Technologies
Procedure: (§3) C1-NP complexes sensitive to MMP cleavage were mixed with 1% (wt/vol) BSA (Sigma) and incubated with recombinant proteases (MMPs and ADAMs: Enzo Life Sciences; Clotting proteases: Haematologic Technologies) in a final volume of 100 μL in enzyme-specific buffers (MMP buffer: 50 mM Tris, 150 mM NaCl, 5 mM CaCl2, 1 μM ZnCl2, pH 7.5; Clotting proteases: PBS) in a 384-well plate for time-lapse fluorimetry to measure dequenching from homoquenched peptides at 37° C. (SpectroMax Gemini EM Microplate Reader). For the metalloproteinase, enzymes were diluted 1:10 in enzyme specific buffer, and for clotting proteases, enzymes were diluted 1:100. Cleavage heatmap was generated using GENE-E (Broad Institute). Michaelis-Menten constants were determined by assessing initial cleavage velocities at different substrate concentrations. The MMP inhibitor Marimatstat (Tocris) was added to the mixture at 100 μM final concentration. To identify the cleavage position by MMP9, C1-NPs were incubated with MMP9 overnight, and the N-terminal cleavage fragment was isolated and analyzed by MALDI. The sequence corresponding to the dominant peak was identified, and the final amino acid was in that sequence represents the P1 position (toward the N-terminal end from scissile bond). For protease resistance assays, various DMNPE: peptide ratios were reacted overnight and purified prior to being added to proteases.

[10] = biological target: T4, MMP13 (Homo sapiens, UniProt P45452); experiment: In vitro recombinant protease assay (fluorescence dequenching of NP-bound substrate); format: biochemical
T4 construct: purchased Enzo Life Sciences
Procedure: as §3
(§4) Light activation of peptides for biochemical studies was performed using a CL-1000 UV Cross-linker (UVP, 8 mW/cm^2). Power density was measured by an OAI 306 UV power meter at 365 nm. Typical exposure time for these studies was 10-30 min. For activation in cell and animal studies, Lumen Dynamics UV system with 365 nm fiber light guide was used (OmniCure 1000, 200 mW/cm^2). For in vivo activation at the tumor site, mice were anesthetized, and the light was guided through an optical cable and placed approximately 3 cm from the flank tumor. Each flank tumor was exposed for 30 s.

[11] = system: LS174T cells; experiment: 3D collagen cancer tissue model, peptide fluorescence in supernatant; format: cell-based, human
Procedure: Next, the activation of the nanosensors in a 3D ECM environment was probed. Forty LS174T cells were embedded in collagen I together with veiled or unmodified nanosensors (FIG. 4A). The constructs were monitored for protease activity by collecting the supernatant and measuring liberated peptide fragments under different conditions: L-amino acid peptide substrates were compared to D-amino acid counterparts to measure nonspecific background, and the role of DMPNE veiling was measured.
In order to correlate regions of light-activation with protease activity measurements, light-activated rhodamine dye was included to visualize regions exposed to light (FIG. 12A). To explore the ability to monitor protease activity with spatial and temporal control, only the left half of the gels was illuminated.
LS174T cells were encapsulated in 2.5 mg/mL collagen hydrogels (rat tail collagen type I, Corning). Imaging was done on Nikon Eclipse Ti Inverted Microscopes and Zeiss Stereoscope Discovery v20. When protease activity was measured, surrounding media was serum-free.

[12] = biological target: T1, MMP9; experiment: In vitro recombinant protease assay (fluorescence dequenching of NP-bound substrate); format: biochemical; design: purchased Enzo Life Sciences
Procedure: as §3, §4

[13] = biological target: T5, MMP19 (Homo sapiens, UniProt Q99542); experiment: In vitro recombinant protease assay with streptavidin depletion; format: biochemical; settings: ~100 nM MMP, one hour
T5 construct: purchased Enzo Life Sciences
T5 sequence (Q99542 98-508): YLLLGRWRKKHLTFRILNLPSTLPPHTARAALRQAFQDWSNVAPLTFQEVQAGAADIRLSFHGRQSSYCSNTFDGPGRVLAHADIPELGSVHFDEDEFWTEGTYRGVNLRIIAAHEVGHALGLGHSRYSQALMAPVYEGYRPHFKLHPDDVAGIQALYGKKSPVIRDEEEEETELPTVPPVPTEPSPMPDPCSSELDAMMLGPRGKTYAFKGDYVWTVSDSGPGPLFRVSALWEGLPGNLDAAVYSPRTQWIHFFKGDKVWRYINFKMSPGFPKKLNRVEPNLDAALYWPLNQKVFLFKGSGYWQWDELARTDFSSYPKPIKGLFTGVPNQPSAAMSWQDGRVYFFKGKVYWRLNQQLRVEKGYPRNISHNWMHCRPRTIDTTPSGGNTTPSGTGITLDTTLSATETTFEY
Procedure: as §1

[14] = biological target: T6, MMP7 (Homo sapiens, UniProt P09237); experiment: as above; format: biochemical; settings: ~100 nM MMP, one hour
T6 construct: purchased Enzo Life Sciences
T6 sequence (P09237 95-267): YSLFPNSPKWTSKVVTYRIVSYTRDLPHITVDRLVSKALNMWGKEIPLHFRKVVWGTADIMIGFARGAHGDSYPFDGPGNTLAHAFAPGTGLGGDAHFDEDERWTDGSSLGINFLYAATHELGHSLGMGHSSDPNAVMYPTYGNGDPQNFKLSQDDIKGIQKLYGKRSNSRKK
Procedure: as §1

[15] = biological target: T6, MMP7; experiment: In vitro recombinant protease assay (fluorescence dequenching of NP-bound substrate); format: biochemical; settings: 100 μM final concentration
Procedure: as §3

[16] = increasing periods of light exposure, 8 mW/cm^2

T1 sequence (P14780 94-707, species assumed): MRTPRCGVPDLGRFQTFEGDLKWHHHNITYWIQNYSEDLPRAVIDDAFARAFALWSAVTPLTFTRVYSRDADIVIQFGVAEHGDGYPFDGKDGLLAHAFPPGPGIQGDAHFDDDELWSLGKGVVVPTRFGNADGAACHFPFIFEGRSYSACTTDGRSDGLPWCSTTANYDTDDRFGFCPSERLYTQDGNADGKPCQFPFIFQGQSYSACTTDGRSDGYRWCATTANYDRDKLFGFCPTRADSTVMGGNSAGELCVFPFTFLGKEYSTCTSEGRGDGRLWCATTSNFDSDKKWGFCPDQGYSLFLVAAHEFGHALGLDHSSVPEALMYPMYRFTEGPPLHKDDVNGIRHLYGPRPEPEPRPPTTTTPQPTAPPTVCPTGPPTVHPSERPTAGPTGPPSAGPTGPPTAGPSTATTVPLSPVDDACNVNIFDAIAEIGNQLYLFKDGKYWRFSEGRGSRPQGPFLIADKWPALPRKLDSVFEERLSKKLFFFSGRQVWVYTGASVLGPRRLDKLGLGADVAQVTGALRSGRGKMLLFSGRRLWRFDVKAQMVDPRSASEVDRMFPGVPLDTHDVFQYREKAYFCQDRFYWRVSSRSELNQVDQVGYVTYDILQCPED
Chain of plasmin (P00747 581-810 limits assumed, species assumed): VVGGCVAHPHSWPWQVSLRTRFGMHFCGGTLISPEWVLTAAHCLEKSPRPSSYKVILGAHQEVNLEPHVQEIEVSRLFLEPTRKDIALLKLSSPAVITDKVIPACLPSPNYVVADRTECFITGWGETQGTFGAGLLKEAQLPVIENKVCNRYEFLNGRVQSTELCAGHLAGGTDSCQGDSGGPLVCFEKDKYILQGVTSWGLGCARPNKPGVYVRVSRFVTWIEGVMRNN
Chain of plasmin (P00747 97-580 partner limits assumed, species assumed): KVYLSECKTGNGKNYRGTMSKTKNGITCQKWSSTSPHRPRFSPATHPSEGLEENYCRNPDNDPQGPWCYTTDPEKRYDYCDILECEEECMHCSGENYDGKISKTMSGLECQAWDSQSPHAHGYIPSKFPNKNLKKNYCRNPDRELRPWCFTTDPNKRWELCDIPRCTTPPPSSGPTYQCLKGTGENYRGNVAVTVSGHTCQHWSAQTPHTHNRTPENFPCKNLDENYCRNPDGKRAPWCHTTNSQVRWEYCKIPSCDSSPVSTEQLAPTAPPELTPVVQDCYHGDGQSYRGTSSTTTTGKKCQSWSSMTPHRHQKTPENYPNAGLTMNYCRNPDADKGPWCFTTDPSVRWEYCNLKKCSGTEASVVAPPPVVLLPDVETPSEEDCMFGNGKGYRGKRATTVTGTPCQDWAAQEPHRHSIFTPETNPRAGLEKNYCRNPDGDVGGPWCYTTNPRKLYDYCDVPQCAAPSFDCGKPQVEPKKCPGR

## FAM-sk-plGleea-GC ({FAM}-[dS][dK][dP][dL]G[dL][dE][dE][dA]GC; also: nanoparticle conjugated) [control NPs conjugated to D-amino acid stereoisomers]
[1]
  cleavage by cell-secreted proteases: not cleaved

## RLVGEGC [eGvndneeGffsarKsRLVGEGC]
[2]
  proteolysis by plasmin after coupling of DMNPE: reduced proteolysis
[2]; then UV
  proteolysis by plasmin after UV exposure: recovered

## Biotin-CGPLGVRGKK(Cy7)eGvndneeGffsar-NH2 [S3]
[3]
  cleavage by cell-secreted proteases: minimal cleavage
[4]
  relative proteolysis by MMP9: responded primarily
[5]
  background cleavage of free peptide: lowest background cleavage
[6]
  urine signal of free peptide: similar
[7]
  relative proteolysis by MMP2: responded primarily

## STREAMs: C1-NPs whose peptide is veiled with photolabile DMNPE groups; unveiled by 365 nm light ({FAM}-[dS][dK]PLGLE(DMNPE)E(DMNPE)AGC(iron oxide nanoparticle); not fully specified)
[8]
  proteolytic cleavage after light exposure in agarose gel: dramatic increase in proteolytic cleavage
[9]
  cleavage by thrombin: reduced cleavage
[10]; [16]
  proteolysis by MMP13 after exposure to 365 nm light: elevated proteolysis in a light exposure-dependent manner
[10]; veiled vs unmodified, no light
  proteolysis by MMP13 after conjugation with DMNPE: marked reduction in proteolysis
[11]; first day, no light
  liberated peptide fluorescence in supernatant: significantly less peptide fluorescence compared to unmodified L-amino acid sensors
[11]; left half of gels illuminated, 24 h, 30 s at 200 mW/cm^2
  peptide fluorescence in supernatant after light exposure: higher levels of peptide fluorescence
[12]; [16]
  proteolysis by MMP9 after exposure to 365 nm light: elevated proteolysis in a light exposure-dependent manner
[12]; two weeks post-DMNPE-coupling
  stability of DMNPE conjugation (resistance to MMP9-mediated cleavage): equal levels of protection compared to freshly conjugated samples
[12]; veiled vs unmodified, no light
  proteolysis by MMP9 after conjugation with DMNPE: marked reduction in proteolysis

## Biotin-CGPVGLIGK(Cy7)eGvndneeGffsar-NH2 [S1]
[3]
  cleavage by cell-secreted proteases: cleaved most significantly
[4]
  relative proteolysis by MMP9: responded primarily
[6]
  urine signal of free peptide: elevated
[7]
  relative proteolysis by MMP2: responded primarily

## Biotin-CGPVPLSLVMK(Cy7)eGvndneeGffsar-NH2 [S2]
[3]
  cleavage by cell-secreted proteases: minimal cleavage
[6]
  urine signal of free peptide: similar
[13]
  relative proteolysis by MMP19: cleaved efficiently
[14]
  relative proteolysis by MMP7: cleaved efficiently

## CNC(=O)[C@@H](NC(=O)[C@H](CC(C)C)[C@H](O)C(=O)NO)C(C)(C)C [Marimastat]
[3]
  effect of inhibitor on proteolysis by LS174T secreted proteases: abrogated
[15]
  effect of inhibitor on proteolysis of C1-NP by MMP7: inhibited; also recorded: abrogates cleavage
